{"source": "patent US9084766B2", "about": "“Compounds and compositions for targeting cancer stem cells” (Boston Biomedical, Inc., priority 2010, dated 2015)", "key": {"[1]": {"test_system": "advanced solid tumors", "assay": "Phase I clinical trial: tumor response (RECIST 1.1) and progression free survival", "assay_type": "in vivo, human", "source_text": "As of Feb. 7, 2011, 42 cancer patients with various advanced solid tumors who have failed chemotherapies were enrolled in the study.\nOf the 42 patients dosed, 24 were evaluable for tumor response as of Feb. 7, 2011; 16 (16/24 evaluable patients) achieved stable disease (8 to 75+ weeks)."}, "[2]": {"test_system": "CD34+ BM Erythroid", "assay": "IC50 versus treatment time, CD34+ BM Erythroid", "assay_type": "cell-based", "details": "normal cells CD34+ BM Erythroid, treatment time 12-24 h", "method": "(§1) The studies described herein discovered counter-intuitively that cancer cells and cancer stem cells requires much shorter exposure than normal cells to be killed by Compound 1. Normal cells can tolerate up to 24 hours of exposure to Compound 1. Furthermore, the studies here discovered that normal cells can recover after a short period of no-drug exposure, while cancer cells cannot recover once they are exposed to a certain concentration of the Compound 1 for at least 2 hours. Based on these studies, a special pharmacokinetic exposure [termed selective pharmacokinetic profile (SPP), or preferred pharmacokinetic profile (PPP), which is used interchangeably in this publication] was designed for Compound 1 using the data shown below in Table 14 for achieving selective antitumor activity in patients (FIG. 24)."}, "[3]": {"test_system": "cancer cells and normal cells", "assay": "Exposure time/concentration selectivity, cancer cells versus normal cells", "assay_type": "cell-based", "method": "as §1\nPreferably, cancer cells must be exposed to a Compound of the Invention such as Compound 1, particles, polymorphs and/or purified forms thereof for 4 hours at concentration greater than 0.2 μM in order to induce cancer cell death. […] A reduced particle size of Compound 1 achieved this preferred pharmacokinetic pattern and selective activity.\nThe selective activity of Compound 1 in killing cancer cells and sparing normal cells is represented by the data in Table 14 and illustrated in FIG. 24."}, "[4]": {"test_system": "cancer cells and normal cells", "details": "Hirai et al. 1999; Takano et al. 2009; previous studies; cited from earlier work"}, "[5]": {"test_system": "HT29", "assay": "IC50 versus treatment time, HT29", "assay_type": "cell-based", "details": "HT29 cancer cells", "method": "as §1"}, "[6]": {"test_system": "DU145", "assay": "IC50 versus treatment time, DU145", "assay_type": "cell-based", "details": "DU145 cancer cells", "method": "as §1"}, "[7]": {"details": "patient 0001, total daily dose 20 mg qd, Colon adenocarcinoma"}, "[8]": {"details": "patient 0013, total daily dose 400 mg bid, Gastric adenocarcinoma"}, "[9]": {"details": "patient 0014, total daily dose 400 mg bid, Ovarian cancer"}, "[10]": {"details": "patient 0015, total daily dose 400 mg bid, Colon adenocarcinoma"}, "[11]": {"details": "patient 0020, total daily dose 600 mg bid, Breast Cancer"}}, "note": "Values joined by “and” are separate entries in the source; they are usually repeats but may differ in a detail not shown here. Equal values may be shown once. “Also recorded” adds a separate entry of the source."}
{"smiles": "CC(=O)c1cc2c(o1)C(=O)c1ccccc1C2=O", "note": "[Compound 1, 2-acetyl-4H,9H-naphtho[2,3-b]furan-4,9-dione]", "values": [{"measurement": "patients showing prolonged SD (>12 weeks)", "setting": "[1]; RECIST 1.1", "result": 12, "unit": "patients"}, {"measurement": "evaluable patients with SD/MR by RECIST", "setting": "[1]; as of Feb. 7, 2011", "result": "16/24 and 16 out of 24"}, {"measurement": "progression free survival", "setting": "[1]; blood drug concentration above 1 uM, diverse cancers (FIG. 23)", "result": "increase in progression free survival"}, {"measurement": "patients in whom new metastatic lesions were prevented", "setting": "[1]; of patients dosed", "result": 83, "unit": "%"}, {"measurement": "patients showing no metastatic tumors", "setting": "[1]; out of 24 evaluable patients with advanced refractory cancers", "result": "over 80%"}, {"measurement": "response of colon cancer metastatic lesion to kidney", "setting": "[1]; patient 0001, 20 mg daily (FIG. 19)", "result": "complete regression; also recorded: signs of potent antitumor activity"}, {"measurement": "New Lesions", "setting": "[1]; [7]", "result": 1}, {"measurement": "regression", "setting": "[1]; [7]", "result": "(regression 27.6%)"}, {"measurement": "New Lesions", "setting": "[1]; patient 0002, total daily dose 40 mg qd, Gastric adenocarcinoma", "result": 3}, {"measurement": "New Lesions", "setting": "[1]; patient 0003, total daily dose 80 mg qd, Head and Neck carcinoma", "result": 0}, {"measurement": "New Lesions", "setting": "[1]; patient 0004, total daily dose 80 mg bid, Colon adenocarcinoma", "result": 0}, {"measurement": "New Lesions", "setting": "[1]; patient 0006, total daily dose 160 mg bid, Lung adenocarcinoma", "result": 0}, {"measurement": "New Lesions", "setting": "[1]; patient 0008, total daily dose 320 mg bid, Colon adenocarcinoma", "result": 2}, {"measurement": "New Lesions", "setting": "[1]; patient 0010, total daily dose 320 mg bid, Colon adenocarcinoma", "result": 0}, {"measurement": "New Lesions", "setting": "[1]; patient 0011, total daily dose 320 mg bid, Angiosarcoma", "result": 0}, {"measurement": "New Lesions", "setting": "[1]; patient 0012, total daily dose 320 mg bid, Prostate cancer", "result": 0}, {"measurement": "Best Response, remark", "setting": "[1]; [8]", "result": "(signs of regression)"}, {"measurement": "New Lesions", "setting": "[1]; [8]", "result": 0}, {"measurement": "Best Response, remark", "setting": "[1]; [9]", "result": "(CA 125 normalization)"}, {"measurement": "New Lesions", "setting": "[1]; [9]", "result": 0}, {"measurement": "CEA change (Best Response, remark)", "setting": "[1]; [10]", "result": "(CEA? >30-50%)"}, {"measurement": "New Lesions", "setting": "[1]; [10]", "result": 0}, {"measurement": "New Lesions", "setting": "[1]; patient 0016, total daily dose 600 mg bid, Pancreatic adenocarcinoma", "result": 0}, {"measurement": "Best Response, remark", "setting": "[1]; [11]", "result": "(hollow tumor)"}, {"measurement": "New Lesions", "setting": "[1]; [11]", "result": 0}, {"measurement": "New Lesions", "setting": "[1]; patient 0021, total daily dose 800 mg bid, Chondrosarcoma", "result": 0}, {"measurement": "New Lesions", "setting": "[1]; patient 0022, total daily dose 800 mg bid, Prostate cancer", "result": 0}, {"measurement": "New Lesions", "setting": "[1]; patient 0023, total daily dose 800 mg bid, Adenocorticoid", "result": 0}, {"measurement": "New Lesions", "setting": "[1]; patient 0024, total daily dose 1000 mg bid, Rectal cancer", "result": 0}, {"measurement": "New Lesions", "setting": "[1]; patient 0027, total daily dose 1400 mg bid, Colon adenocarcinoma", "result": 2}, {"measurement": "New Lesions", "setting": "[1]; patient 0032, total daily dose 200 mg tid, Colon adenocarcinoma", "result": 0}, {"measurement": "New Lesions", "setting": "[1]; patient 0037, total daily dose 500 mg tid, Colon adenocarcinoma", "result": 0}, {"measurement": "progression free survival", "setting": "[1]; patients with exposure above 1.6 uM for at least 4 hours", "result": "improvement in progression free survival"}, {"measurement": "IC50", "setting": "[2]", "result": "> 30", "unit": "µM"}, {"measurement": "selectivity", "setting": "[3]; concentration greater than from about 0.5 to about 3 μM for less than 24 hours", "result": "selective activity in killing cancer cells and sparing normal cells"}, {"measurement": "selectivity", "setting": "[3]; concentrations of about or above 0.2 and 30 μM for from about 4 hours up to about 24 hours", "result": "selective killing of cancer cells and sparing of normal cells"}, {"measurement": "killing of cancer cells", "setting": "[3]; concentrations of less than 0.5 μM, regardless of exposure time", "result": "no killing of cancer cells"}, {"measurement": "selectivity", "setting": "[3]; continuous exposure for greater than 24 hours", "result": "loss of selectivity"}, {"measurement": "exposure time tolerated by normal cells", "setting": "[3]; normal cells", "result": "up to 24 hours"}, {"measurement": "toxicity to cancer cells and normal cells", "setting": "[4]", "result": "equally toxic to normal and cancer cells; also recorded: equally toxic to cancer cells and normal cells"}, {"measurement": "IC50", "setting": "[5]; treatment time 12-24 h", "result": "< 0.5", "unit": "µM"}, {"measurement": "IC50", "setting": "[5]; Homo sapiens, HT-29, treatment time 4-12 h", "result": "< 0.5", "unit": "µM"}, {"measurement": "IC50", "setting": "[6]; treatment time 12-24 h", "result": "< 0.2", "unit": "µM"}, {"measurement": "IC50", "setting": "[6]; Homo sapiens, DU-145, treatment time 4-12 h", "result": "< 0.2", "unit": "µM"}]}
